Legend:
[1] = biological target: T1, Rat Kidney Medullary V2 Receptors (Rattus norvegicus, UniProt Q00788); assay: Binding Assay to Rat Kidney Medullary V2 Receptors; details: for inhibition at 10 µM: rat; for IC50: rat kidney medulla membranes, read-out: V2 IC50
T1 construct: Medullary tissues from rat kidneys are dissected out; from tissue; host or cells: rat kidney medulla membranes
Outline: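 Membranes were prepared from rat kidney medulla and stored in 50.0 mM Tris-HCl pH 7.4 with 0.2% BSA and 0.1 mM PMSF. Radioligand competition ran 120 min at bench temperature, with 1.0 μM unlabeled ligand defining nonspecific binding. Compounds were added in 50% DMSO; filtration, tritium scintillation counting, IC50 from competition analysis.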

Rat Hepatic V1 Receptors = biological target: T2, Rat Hepatic V1 Receptors (Rattus norvegicus, UniProt P30560); assay: Binding Assay to Rat Hepatic V1 Receptors; details: for inhibition at 10 µM: 2 h, rat; for IC50: rat liver membranes, read-out: V1 IC50
T2 construct: Rat liver plasma membranes expressing the vasopressin V1 receptor subtypes; from tissue; host or cells: rat liver plasma membranes

oxytocin receptors = biological target: T3, oxytocin receptors (Rattus norvegicus, UniProt P70536); assay: Oxytocin Receptor Binding; details: for inhibition at 10 µM: [3H]oxytocin; for IC50: 1.0 nM [3H]oxytocin
T3 construct: The uteri are dissected out, cleaned of fat and connective tissues; from tissue; host or cells: uterus of DES-treated female Sprague-Dawley rats
T3 sequence (P70536 1-388): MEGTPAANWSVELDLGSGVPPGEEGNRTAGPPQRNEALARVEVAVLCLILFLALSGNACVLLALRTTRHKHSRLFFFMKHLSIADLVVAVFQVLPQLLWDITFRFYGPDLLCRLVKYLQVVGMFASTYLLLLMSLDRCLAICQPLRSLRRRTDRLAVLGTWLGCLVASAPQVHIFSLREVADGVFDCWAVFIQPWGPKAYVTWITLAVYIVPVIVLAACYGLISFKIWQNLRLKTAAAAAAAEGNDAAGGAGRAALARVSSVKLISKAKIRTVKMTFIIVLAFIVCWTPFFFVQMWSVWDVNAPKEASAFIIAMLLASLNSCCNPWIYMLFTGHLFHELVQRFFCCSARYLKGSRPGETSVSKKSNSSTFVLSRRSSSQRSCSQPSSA
Description: Oxytocin Receptor Binding
Female Sprague-Dawley rats weighing approximately 200-250 g are injected intramuscularly (i.m.) with 0.3 mg/kg of body weight of diethylstilbestrol (DES). The rats are sacrificed 18 hours later under pentobarbital anesthesia. The uteri are dissected out, cleaned of fat and connective tissues and rinsed in 50 ml of normal saline. The tissue pooled from six rats is homogenized in 50 ml of […] Tris.HCl, containing 0.5 mM dithiothreitol and 1.0 mM EDTA, adjusted to pH 7.4, using a polytron at setting 6 with three passes of 10 sec each. The homogenate is passed through two (2) layers of cheesecloth and the filtrate centrifuged at 1000× g for 10 min. The clear supernatant is removed and recentrifuged at 165,000× g for 30 min. The resulting pellet containing the oxytocin receptors is resuspended in 50.0 mM Tris.HCl containing 5.0 mM MgCl2 at pH 7.4, to give a protein concentration of 2.5 mg/ml of tissue suspension. This preparation is used in subsequent binding assays with [^3 H]Oxytocin.
Binding of 3,5-[^3 H]Oxytocin ([^3 H]OT) to its receptors is done in microtiter plates using [^3 H]OT, at various concentrations, in an assay buffer of 50.0 mM Tris.HCl, pH 7.4 and containing 5.0 mM MgCl2, and a mixture of protease inhibitors: BSA, 0.1 mg; aprotinin, 1.0 mg; 1,10-phenanthroline, 2.0 mg; […], 10.0 mg; and PMSF, 0.3 mg per 100 ml of buffer solution. Non-specific binding is determined in the presence of 1.0 uM unlabeled OT. The binding reaction is terminated after 60 min , at 22° C. by rapid filtration through glass fiber filters using a Brandel® cell harvester (Biomedical Research and Development Laboratories, Inc., Gaithersburg, Md.). Competition experiments are conducted at equilibrium using 1.0 nM [^3 H]OT and varying the concentration of the displacing agents. The concentrations of agent displacing 50% of [^3 H]OT at its sites (IC50) are calculated by a computer assisted LUNDON-2 program (LUNDON SOFTWARE INC., Ohio, USA).

Vasopressin V2 = Vasopressin V2 Antagonist Activity in Conscious Hydrated Rats; assay type: in vivo, rat; details: 10 mg/kg orally, AVP 0.4 μg/kg i.p.
Outline: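 Four-hour urine output, osmolality and electrolytes (Na+, K+, Cl−) recorded in water-loaded rats (30 mL/kg deionized water orally) given AVP i.p. at 0.4 μg/kg. Test compounds were given orally at 0.1–100 mg/kg 1 h before AVP; 2–4 rats per compound.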

Vasopressin V1 = Vasopressin V1 Antagonist Activity in Conscious Rats (vasopressin vasopressor response); assay type: in vivo, rat
Outline: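 Conscious rats are restrained supine, and under local 2% procaine a PE 10/20 cannula is passed through the ventral caudal tail artery into the lower abdominal aorta. The caudal vein is cannulated for intravenous dosing. Blood pressure is recorded with a Statham P23Db transducer, and vasopressin injections are repeated after compound dosing. Percent antagonism is calculated against the pre-drug vasopressor response taken as 100%.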

T1 sequence (Q00788 whole entry): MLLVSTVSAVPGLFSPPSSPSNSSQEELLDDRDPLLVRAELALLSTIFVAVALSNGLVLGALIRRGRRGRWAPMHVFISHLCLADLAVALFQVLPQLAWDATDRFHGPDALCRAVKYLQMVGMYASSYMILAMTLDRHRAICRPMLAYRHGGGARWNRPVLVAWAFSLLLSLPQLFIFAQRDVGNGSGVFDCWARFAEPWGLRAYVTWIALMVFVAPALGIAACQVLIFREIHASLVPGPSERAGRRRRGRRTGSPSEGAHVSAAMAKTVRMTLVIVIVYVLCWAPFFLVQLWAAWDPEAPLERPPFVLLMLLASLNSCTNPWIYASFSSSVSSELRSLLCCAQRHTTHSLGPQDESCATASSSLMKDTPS
T2 sequence (P30560 whole entry): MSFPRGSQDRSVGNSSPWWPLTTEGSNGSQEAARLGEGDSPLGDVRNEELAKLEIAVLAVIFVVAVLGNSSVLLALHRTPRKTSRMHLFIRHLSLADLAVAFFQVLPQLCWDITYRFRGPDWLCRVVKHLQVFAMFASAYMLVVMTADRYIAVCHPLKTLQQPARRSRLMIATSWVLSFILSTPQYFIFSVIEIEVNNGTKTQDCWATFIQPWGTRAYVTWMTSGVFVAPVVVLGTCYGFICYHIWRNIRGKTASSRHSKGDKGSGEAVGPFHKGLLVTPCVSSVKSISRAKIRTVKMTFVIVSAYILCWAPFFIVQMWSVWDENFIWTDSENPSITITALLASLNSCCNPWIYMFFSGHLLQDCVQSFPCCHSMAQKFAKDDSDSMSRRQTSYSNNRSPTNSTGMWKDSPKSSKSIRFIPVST

inhibition at 10 µM [1] [%] | inhibition at 10 µM (Rat Hepatic V1 Receptors) [%] | inhibition at 10 µM (oxytocin receptors) [%] | IC50 [1] [nM] | IC50 (Rat Hepatic V1 Receptors) [nM] | IC50 (oxytocin receptors) [nM] | SMILES | also measured
64 | 45 | 29 |  |  |  | O=C(CN1CCOCC1)N(Cc1ccccc1Cl)c1ccc(C(=O)N2Cc3cccn3Cc3ccccc32)cc1 [Example 591, N-[(2-Chlorophenyl)methyl]-N-[4-(5H-pyrrolo[2,1-c][1,4]benzodiazepin-10(11H) -ylcarbonyl)phenyl]-4-morpholineacetamide] | 
 |  | 89 | 13 | 170 | 1600 | CCN(CC)Cc1ccc2n1Cc1ccccc1N(C(=O)c1ccc(NC(=O)c3ccc(Cl)cc3Cl)cc1)C2 [Example 667, N-[4-[[3-[(diethylamino)methyl]-5H-pyrrolo[2,1-c][1,4]benzodiazepin-10(11H)-yl]carbonyl]phenyl]-2,4-dichlorobenzamide] | 
89 | 41 | 32 |  |  |  | CCOC(=O)c1ccc2c(c1)N(C(=O)c1ccc(NC(=O)c3ccccc3C)cc1)Cc1cccn1C2 [Example 676, Ethyl 10,11-Dihydro-10-[4-[(2-methylbenzoyl)amino]benzoyl]-5H-pyrrolo[2,1-c][1,4]benzodiazepin-8-carboxylate] | 
 |  | 61 | 27 | 54 | 4000 | O=C(Nc1ccc(C(=O)N2Cc3cccn3Cc3ccccc32)cc1)C(Cl)c1ccccc1 (stereo not drawn) [Example 583, α-Chloro-N-[4-(5H-pyrrolo[2,1-c][1,4]benzodiazepin-10(11H)-ylcarbonyl)phenyl]benzeneacetamide] | 
 |  | 97 | 39 | 56 | 1000 | O=C(Nc1ccc(C(=O)N2Cc3ccc(CN4CCCC4)n3Cc3ccccc32)cc1)c1ccc(Cl)cc1Cl [Example 665, N-[4-[[3-(1-pyrrolidinylmethyl)-5H-pyrrolo[2,1-c][1,4]benzodiazepin-10(11H)-yl]carbonyl]phenyl)-2,4-dichlorobenzamide] | 
 |  | 76 | 33 | 270 | 4000 | Cc1ccccc1C(=O)Nc1ccc(C(=O)N2CCc3cccn3-c3ccccc32)cc1 [Example 297] | Osmolality (Vasopressin V2): 796 mOsm/kg; Urine Volume (Vasopressin V2): 7 ml/4 hrs
77 | 39 | 18 |  |  |  | Cc1ccccc1C(=O)Nc1ccc(C(=O)N2CCc3nncn3-c3ccccc32)cc1 [Example 486, N-[4-[(4,5-Dihydro-6H-[1,2,4]triazolo[4,3-a][1,5]-benzodiazepin-6-yl)carbonyl)phenyl]-2-methylbenzoate] | 
 |  | 83 | 13 | 160 | 2100 | O=C(Nc1ccc(C(=O)N2Cc3ccc(CN4CCOCC4)n3Cc3ccccc32)cc1)c1ccc(Cl)cc1Cl [Example 666, N-[4-[[3-(4-morpholinomethyl)-5H-pyrrolo[2,1-c][1,4]benzodiazepin-10(11H)-yl]carbonyl]phenyl]-2,4-dichlorobenzamide] | 
83 | 82 | 46 |  |  |  | O=C(c1ccc(NP(=O)(c2ccccc2)c2ccccc2)cc1)N1Cc2cccn2Cc2ccccc21 [Example 491, 10-[4-[(Diphenylphosphinyl)amino]benzoyl]-10,11-dihydro-5H-pyrrolo-[2,1-c][1,4]benzodiazepine] | 
93 | 58 | 2 |  |  |  | O=C(Nc1ccc(C(=O)N2Cc3ccc(C(=O)C(Cl)(Cl)Cl)n3Cc3ccccc32)cc1)c1ccc(Cl)cc1Cl [Example 598, N-[4-[[3-(Trichloroacetyl)-5H-pyrrolo[2,1-c][1,4]benzodiazepin-10(11H) -yl]carbonyl]phenyl]-2,4-dichlorobenzamide] | 
56 | 90 | 20 |  |  |  | Cc1cc(C(=O)N2Cc3cccn3Cc3ccccc32)cc(C)c1NC(=O)c1ccc(Cl)cc1Cl [Example 473] | Osmolality (Vasopressin V2): 1493 mOsm/kg; Urine Volume (Vasopressin V2): 2.3 ml/4 hrs
 |  | 94 | 11 | 56 | 1200 | Cc1cc(C(=O)N2Cc3cccn3Cc3ccccc32)ccc1NC(=O)c1ccccc1C [Example 96, N-[4-(5H-pyrrolo[2,1-c][1,4]benzodiazepin-10(11H)-ylcarbonyl)-2-methylphenyl]-2-methylbenzamide] | 
 |  | 95 | 48 | 120 | 1400 | CN(C)Cc1ccc2n1Cc1ccccc1N(C(=O)c1ccc(NC(=O)c3ccc(Cl)cc3Cl)cc1)C2 [Example 664] | 
 |  | 67 | 87 | 930 | 2450 | Cc1cccc(C(=O)Nc2ccc(C(=O)N3Cc4cccn4-c4ccccc43)cc2)c1C [Example 21, N-[4-(pyrrolo[1,2-a]quinoxalin-5(4H)-ylcarbonyl)phenyl]-2,3-dimethyl-benzamide] | 
 |  | 41 | 240 | 3300 |  | CCOC(=O)c1ccc2n1Cc1ccccc1N(C(=O)c1ccc(NC(=O)c3ccc(Cl)cc3Cl)c(C)c1)C2 [Example 592, Ethyl 10-[4-[(2,4-dichlorobenzoyl)amino]-3-methylbenzoyl]-10,11-dihydro-5H-pyrrolo[2,1-c][1,4]benzodiazepine-3-carboxylate] | Max. % Inhibition (Vasopressin V1; 30 mg/kg i.v.): 37%; Time (of max. % inhibition) (Vasopressin V1; 30 mg/kg i.v.): 90 min
 |  | 67 | 54 | 100 | 2450 | Cc1ccccc1CC(=O)Nc1ccc(C(=O)N2Cc3cccn3-c3ccccc32)cc1 [Example 36, N-[4-(pyrrolo[1,2-a]quinoxalin-5(4H)-ylcarbonyl)phenyl]-2-methylbenzene-acetamide] | Max. % Inhibition (Vasopressin V1; 30 mg/kg i.v.): 71%; Time (of max. % inhibition) (Vasopressin V1; 30 mg/kg i.v.): 60 min
82 | 91 | 79 |  |  | 2900 | O=C(CCl)Nc1ccc(C(=O)N2Cc3cccn3Cc3ccccc32)cc1 [Example 589, 2-Chloro-N-[4-(5H-pyrrolo[2,1-c][1,4]benzodiazepin-10(11H) -ylcarbonyl)phenyl]acetamide] | 
 |  | 79 | 80 | 200 | 2960 | O=Cc1ccc2n1Cc1ccccc1N(C(=O)c1ccc(NC(=O)c3ccc(Cl)cc3Cl)cc1)C2 [Example 580, 2,4-Dichloro-N-[4-[(3-formyl-5H-pyrrolo[2,1-c][1,4]benzodiazepin-10(11H)-yl)carbonyl]phenyl]benzamide] | 
 |  | 96 | 29 | 27 | 260 | O=C(Nc1ccc(C(=O)N2Cc3cccn3Cc3ccccc32)cc1)c1cccc(Cl)c1Cl [Example 468, N-[4-(5H-pyrrolo[2,1-c][1,4]benzodiazepin-10(11H)-ylcarbonyl)phenyl]-2,3-dichlorobenzamide] | Max. % Inhibition (Vasopressin V1; 10 mg/kg i.v.): 68%; Time (of max. % inhibition) (Vasopressin V1; 10 mg/kg i.v.): 30 min

— patent US5624923A, “Tricyclic diazepine vasopressin antagonists and oxytocin antagonists” (priority 1995, dated 1997)
